Experimental data as given in ChEMBL document CHEMBL5500347, “An update on antibacterial AlkylGuanidino Ureas: Design of new derivatives, synergism with colistin and data analysis of the whole library” (2024).
Converted amounts (≈) assume the structure as drawn. The source made the active and inactive calls. The rule behind the calls is not given here.

How the values were obtained:
[1] = test system: Acinetobacter baumannii; test: Synergistic antibacterial activity against Acinetobacter baumannii N50 incubated for 18 to 24 hrs in presence of colistin by CLSI based microdilution broth method; format: functional; conditions: time 18-24 hrs
[2] = test system: Acinetobacter baumannii; test: Antibacterial activity against Acinetobacter baumannii N50 incubated for 18 to 24 hrs by CLSI based microdilution broth method; format: functional; conditions: time 18-24 hrs
[3] = test system: Escherichia coli; test: Antibacterial activity against Escherichia coli CCUGT incubated for 18 to 24 hrs by CLSI based microdilution broth method; format: functional; conditions: time 18-24 hrs
[4] = test system: Acinetobacter baumannii; test: Synergistic antibacterial activity against Acinetobacter baumannii ATCC 17978 assessed as potentiation fold by measuring MIC to MAC ratio incubated for 18 to 24 hrs in presence of colistin by CLSI based microdilution broth method; format: functional; conditions: time 18-24 hrs
[5] = test system: Acinetobacter baumannii; test: Antibacterial activity against Acinetobacter baumannii ATCC 17978 incubated for 18 to 24 hrs by CLSI based microdilution broth method; format: functional; conditions: time 18-24 hrs; for MIC: Acinetobacter baumannii, ATCC 17978
[6] = test system: Acinetobacter baumannii; test: Synergistic antibacterial activity against Acinetobacter baumannii N50 assessed as potentiation fold by measuring MIC to MAC ratio incubated for 18 to 24 hrs in presence of colistin by CLSI based microdilution broth method; format: functional; conditions: time 18-24 hrs
[7] = test system: Acinetobacter baumannii; test: Synergistic antibacterial activity against Acinetobacter baumannii ATCC 17978 incubated for 18 to 24 hrs in presence of colistin by CLSI based microdilution broth method; format: functional; conditions: time 18-24 hrs
[8] = test system: Pseudomonas aeruginosa; test: Antibacterial activity against Pseudomonas aeruginosa ATCC 27853 incubated for 18 to 24 hrs by CLSI based microdilution broth method; format: functional; conditions: time 18-24 hrs; for MIC: Pseudomonas aeruginosa, ATCC 27853
[9] = test system: Klebsiella pneumoniae; test: Antibacterial activity against Klebsiella pneumoniae ATCC 13833 incubated for 18 to 24 hrs by CLSI based microdilution broth method; format: functional; conditions: time 18-24 hrs
[10] = test system: Klebsiella pneumoniae; test: Antibacterial activity against Klebsiella pneumoniae ATCC 13833 at 256 ug/ml incubated for 18 to 24 hrs by CLSI based microdilution broth method; format: functional, organism-based; conditions: dose 256.0 µg/ml, time 18-24 hrs
[11] = test system: Bacillus subtilis; test: Antibacterial activity against Bacillus subtilis ATCC 6633 at 256 ug/ml incubated for 18 to 24 hrs by CLSI based microdilution broth method; format: functional, organism-based; conditions: dose 256.0 µg/ml, time 18-24 hrs
[12] = test system: Streptococcus pyogenes; test: Antibacterial activity against Streptococcus pyogenes ATCC 12344 at 256 ug/ml incubated for 18 to 24 hrs by CLSI based microdilution broth method; format: functional, organism-based; conditions: dose 256.0 µg/ml, time 18-24 hrs
[13] = test system: Acinetobacter baumannii; test: Antibacterial activity against Acinetobacter baumannii ATCC 17978 at 256 ug/ml incubated for 18 to 24 hrs by CLSI based microdilution broth method; format: functional, organism-based; conditions: dose 256.0 µg/ml, time 18-24 hrs
[14] = test system: Escherichia coli; test: Antibacterial activity against Escherichia coli CCUGT at 256 ug/ml incubated for 18 to 24 hrs by CLSI based microdilution broth method; format: functional, organism-based; conditions: dose 256.0 µg/ml, time 18-24 hrs
[15] = test system: Pseudomonas aeruginosa; test: Antibacterial activity against Pseudomonas aeruginosa ATCC 27853 at 256 ug/ml incubated for 18 to 24 hrs by CLSI based microdilution broth method; format: functional, organism-based; conditions: dose 256.0 µg/ml, time 18-24 hrs
[16] = test system: Enterococcus faecalis; test: Antibacterial activity against Enterococcus faecalis ATCC 19433 at 256 ug/ml incubated for 18 to 24 hrs by CLSI based microdilution broth method; format: functional, organism-based; conditions: dose 256.0 µg/ml, time 18-24 hrs
[17] = test system: Staphylococcus aureus; test: Antibacterial activity against Staphylococcus aureus ATCC 25923 at 256 ug/ml incubated for 18 to 24 hrs by CLSI based microdilution broth method; format: functional, organism-based; conditions: dose 256.0 µg/ml, time 18-24 hrs
[18] = test system: Staphylococcus aureus; test: Antibacterial activity against Staphylococcus aureus ATCC 25923 incubated for 18 to 24 hrs by CLSI based microdilution broth method; format: functional; conditions: time 18-24 hrs
[19] = test system: Streptococcus pyogenes; test: Antibacterial activity against Streptococcus pyogenes ATCC 12344 incubated for 18 to 24 hrs by CLSI based microdilution broth method; format: functional; conditions: time 18-24 hrs
[20] = test system: Enterococcus faecalis; test: Antibacterial activity against Enterococcus faecalis ATCC 19433 incubated for 18 to 24 hrs by CLSI based microdilution broth method; format: functional; conditions: time 18-24 hrs
[21] = test system: Bacillus subtilis; test: Antibacterial activity against Bacillus subtilis ATCC 6633 incubated for 18 to 24 hrs by CLSI based microdilution broth method; format: functional; conditions: time 18-24 hrs
[22] = test system: Escherichia coli; test: Synergistic antibacterial activity against Escherichia coli CCUGT incubated for 18 to 24 hrs in presence of colistin by CLSI based microdilution broth method; format: functional; conditions: time 18-24 hrs
[23] = test system: Pseudomonas aeruginosa; test: Synergistic antibacterial activity against Pseudomonas aeruginosa ATCC 27853 incubated for 18 to 24 hrs in presence of colistin by CLSI based microdilution broth method; format: functional; conditions: time 18-24 hrs
[24] = test system: Pseudomonas aeruginosa; test: Synergistic antibacterial activity against Pseudomonas aeruginosa ATCC 27853 assessed as potentiation fold by measuring MIC to MAC ratio incubated for 18 to 24 hrs in presence of colistin by CLSI based microdilution broth method; format: functional; conditions: time 18-24 hrs
[25] = test system: Klebsiella pneumoniae; test: Synergistic antibacterial activity against Klebsiella pneumoniae ATCC 13833 incubated for 18 to 24 hrs in presence of colistin by CLSI based microdilution broth method; format: functional; conditions: time 18-24 hrs
[26] = test system: Escherichia coli; test: Synergistic antibacterial activity against Escherichia coli CCUGT assessed as potentiation fold by measuring MIC to MAC ratio incubated for 18 to 24 hrs in presence of colistin by CLSI based microdilution broth method; format: functional; conditions: time 18-24 hrs
[27] = test system: Klebsiella pneumoniae; test: Synergistic antibacterial activity against Klebsiella pneumoniae ATCC 13833 assessed as potentiation fold by measuring MIC to MAC ratio incubated for 18 to 24 hrs in presence of colistin by CLSI based microdilution broth method; format: functional; conditions: time 18-24 hrs
[28] = Escherichia coli, CCUGT, read-out: MIC
[29] = Klebsiella pneumoniae, ATCC 13833, read-out: MIC

CCNC(=N)NCCCCCCCCN(CCCCCCCCNC(=N)NCC)C(=O)N(CCCCCCCCNC(=N)NCC)CCCCCCCCNC(=N)NCC
MAC [1]: 0.25 µg/mL | MIC [2]: 64 µg/mL (≈ 75.4 µM) | MIC [3, 28]: 2 µg/mL (≈ 2.35 µM) | Ratio [4]: 32 | MIC [5]: 16 µg/mL (≈ 18.8 µM) | Ratio [6]: 256 | MAC [7]: 0.5 µg/mL | MIC [8]: 64 µg/mL (≈ 75.4 µM) | MIC [9, 29]: 4 µg/mL (≈ 4.71 µM)

[N-]=[N+]=NCCCCCCCCN(CCCCCCCCNC(c1ccccc1)(c1ccccc1)c1ccccc1)C(=O)N(CCCCCCCCN=[N+]=[N-])CCCCCCCCNC(c1ccccc1)(c1ccccc1)c1ccccc1
Activity [10]: inactive | Activity [11]: inactive | Activity [12]: inactive | Activity [13]: inactive | Activity [14]: inactive | Activity [15]: inactive | Activity [16]: inactive | Activity [17]: inactive

CCNC(=N)NCCCCCCCCNC(N)=O.O=C(O)C(F)(F)F
Activity [10]: inactive | Activity [13]: inactive | MIC [18]: 32 µg/mL | Activity [14]: inactive | Activity [15]: inactive | MIC [19]: 64 µg/mL | MIC [20]: 128 µg/mL | MIC [21]: 64 µg/mL

N=C(N)NCCCCCCCCN(CCCCCCCCNC(=N)NCC1CC1)C(=O)NC(=N)NCCCCCCCCNCCCCCCCCNC(=N)NCC1CC1
MAC [1]: 0.5 µg/mL | MIC [2]: > 64 µg/mL | MAC [22]: 0.5 µg/mL | MAC [23]: 2 µg/mL | MIC [3, 28]: > 256 µg/mL | Ratio [4]: >256 | MIC [5]: > 64 µg/mL | Ratio [6]: >128 | MAC [7]: 0.125 µg/mL | Ratio [24]: >128 | MAC [25]: 1 µg/mL | MIC [8]: > 256 µg/mL | Ratio [26]: >512 | Ratio [27]: >256 | MIC [9, 29]: > 256 µg/mL

CCNC(=N)NCCCCCCN(CCCCCCNC(=N)NCC1CC1)C(=O)N(CCCCCCNC(=N)NCC)CCCCCCNC(=N)NCC1CC1
MAC [22]: 8 µg/mL | MIC [3, 28]: 8 µg/mL (≈ 10.1 µM) | Ratio [4]: 16 | MIC [5]: 64 µg/mL (≈ 81.1 µM) | MAC [7]: 4 µg/mL | MIC [8]: 128 µg/mL (≈ 162 µM) | Ratio [26]: 1 | MIC [9, 29]: 16 µg/mL (≈ 20.3 µM)

CC(C)NC(=N)NCCCCCCCCNC(N)=O.O=C(O)C(F)(F)F
Activity [10]: inactive | Activity [13]: inactive | MIC [18]: 64 µg/mL | Activity [14]: inactive | Activity [15]: inactive | MIC [19]: 64 µg/mL | MIC [20]: 128 µg/mL | MIC [21]: 64 µg/mL

N=C(N)NCCCCCCN(CCCCCCNC(=N)NCC1CC1)C(=O)N(CCCCCCNC(=N)N)CCCCCCNC(=N)NCC1CC1
MAC [1]: >256 µg/mL | MIC [2]: > 256 µg/mL | MAC [22]: 1 µg/mL | MAC [23]: 8 µg/mL | MIC [3, 28]: 16 µg/mL (≈ 21.8 µM) | Ratio [4]: 128 | MIC [5]: 128 µg/mL (≈ 175 µM) | Ratio [6]: 1 | MAC [7]: 1 µg/mL | Ratio [24]: 32 | MAC [25]: 16 µg/mL | MIC [8]: 256 µg/mL (≈ 349 µM) | Ratio [26]: 16 | Ratio [27]: 2 | MIC [9, 29]: 32 µg/mL (≈ 43.6 µM)

O=C(O)C(F)(F)F.[N-]=[N+]=NCCCCCCCCN(CCCCCCCCNC(=N)N)C(=O)N(CCCCCCCCN=[N+]=[N-])CCCCCCCCNC(=N)N
MAC [1]: 32 µg/mL | MIC [2]: 32 µg/mL | MAC [22]: 32 µg/mL | MAC [23]: 16 µg/mL | MIC [3, 28]: 32 µg/mL | Ratio [4]: 1 | MIC [18]: 2 µg/mL | MIC [19]: 8 µg/mL | MIC [5]: 64 µg/mL | MIC [20]: 16 µg/mL | MIC [21]: 8 µg/mL | Ratio [6]: 1 | MAC [7]: 64 µg/mL | Ratio [24]: >16 | MAC [25]: 2 µg/mL | MIC [8]: > 256 µg/mL | Ratio [26]: 1 | Ratio [27]: 16 | MIC [9, 29]: 32 µg/mL

CNC(=N)NCCCCCCCCNC(N)=O.O=C(O)C(F)(F)F
Activity [10]: inactive | Activity [13]: inactive | MIC [18]: 32 µg/mL | Activity [14]: inactive | Activity [15]: inactive | MIC [19]: 64 µg/mL | MIC [20]: 128 µg/mL | MIC [21]: 128 µg/mL

C/C=C/CNC(=N)NCCCCCCCCNC(N)=O.O=C(O)C(F)(F)F
Activity [13]: inactive | MIC [3, 28]: 128 µg/mL | MIC [18]: 32 µg/mL | Activity [15]: inactive | MIC [19]: 32 µg/mL | MIC [20]: 64 µg/mL | MIC [21]: 64 µg/mL | MIC [9, 29]: 128 µg/mL

N=C(NCCCCCCNC(N)=O)NCC1CC1.O=C(O)C(F)(F)F
Activity [10]: inactive | Activity [13]: inactive | MIC [18]: 128 µg/mL | Activity [14]: inactive | Activity [15]: inactive | MIC [19]: 128 µg/mL | MIC [20]: 128 µg/mL | MIC [21]: 128 µg/mL

N=C(NCCCCCCCCN(CCCCCCCCNC(=N)NCC1CC1)C(=O)N(CCCCCCNC(=N)NCC1CC1)CCCCCCNC(=N)NCC1CC1)NCC1CC1
MAC [1]: 2 µg/mL | MIC [2]: 64 µg/mL (≈ 71.3 µM) | MAC [23]: 128 µg/mL | MIC [3, 28]: 4 µg/mL (≈ 4.46 µM) | Ratio [4]: 16 | MIC [5]: 64 µg/mL (≈ 71.3 µM) | Ratio [6]: 32 | MAC [7]: 4 µg/mL | Ratio [24]: 1 | MIC [8]: 128 µg/mL (≈ 143 µM) | MIC [9, 29]: 4 µg/mL (≈ 4.46 µM)

N=C(N)NCCCCCCCCN(CCCCCCCCN)C(=O)N(CCCCCCCCN)CCCCCCCCNC(=N)NCC1CC1
MAC [1]: 4 µg/mL | MIC [2]: 32 µg/mL (≈ 45.3 µM) | MAC [22]: 0.5 µg/mL | MAC [23]: 8 µg/mL | MIC [3]: 32 µg/mL (≈ 45.3 µM) | Ratio [4]: 8 | MAC [5]: 64 µg/mL | Ratio [6]: 8 | MAC [7]: 8 µg/mL | Ratio [24]: 16 | MAC [25]: 32 µg/mL | MAC [8]: 128 µg/mL | Ratio [26]: 64 | Ratio [27]: 2 | MIC [9]: 64 µg/mL (≈ 90.5 µM)
